Measurements published in publication PMC10456296, “Trichoderols B-G, Six New Lipids from the Marine Algicolous Fungus Trichoderma sp. Z43” (Marine Drugs, 2023).
Converted amounts (≈) assume the structure as drawn. Read-outs that look alike come from different tables or passages of the source.

What was measured:
[1] = system: Amphidinium carterae; assay: Antimicroalgal activity, inhibition of marine phytoplankton; settings: for IC50: Amphidinium carterae, 24 h, read-out: IC50 Amphidinium carterae
[2] = system: Heterosigma akashiwo; assay: as above; settings: for IC50: Heterosigma akashiwo, 24 h, read-out: IC50 Heterosigma akashiwo
[3] = system: Gaeumannomyces graminis; assay: Antifungal activity, microdilution method in 96-well plate; format: cell-based; settings: 48 h, read-out: MIC Gaeumannomyces graminis
[4] = system: Fusarium graminearum; assay: microbe, parasite or virus in culture; format: cell-based; settings: 48 h, read-out: MIC Fusarium graminearum
[5] = system: Prorocentrum donghaiense; assay: Antimicroalgal activity, inhibition of marine phytoplankton; settings: for IC50: Prorocentrum donghaiense, 24 h, read-out: IC50 Prorocentrum donghaiense
[6] = system: three phytopathogenic fungi (Fusarium graminearum, Gaeumannomyces graminis, and Glomerella cingulata); assay: organism not typed; format: cell-based; settings: for MIC: read-out: MIC against the three phytopathogenic fungi tested, summary over three fungi; for antifungal activity (in words): summary over three fungi
[7] = system: Glomerella cingulata; assay: Antifungal activity, microdilution method in 96-well plate; format: cell-based; settings: Colletotrichum gloeosporioides; microdilution in PDB, 28 °C, 48 h
[8] = system: Heterocapsa circularisquama; assay: Antimicroalgal activity, inhibition of marine phytoplankton; settings: for IC50: Heterocapsa circularisquama, 24 h, read-out: IC50 Heterocapsa circularisquama
[9] = system: Artemia salina; assay: Brine shrimp lethal activity; format: in vivo; settings: 24 h
Procedure: The inhibition of the brine shrimp Artermia salina was assayed according to the procedures described in our previous report. In brief, brine shrimp eggs were left to hatch in sea water for 48 h at 25 °C under natural light. […] The lethality was observed after 24 h of cultivation.

Row | SMILES | IC50 [1] [µg/mL] | IC50 [2] [µg/mL] | MIC [3] [µg/mL] | MIC [4] [µg/mL] | IC50 [5] [µg/mL] | MIC [6] [µg/mL] | antifungal activity (in words) [6] | MIC [7] [µg/mL] | IC50 [8] [µg/mL] | MIC ([3]; microdilution in PDB, 28 °C) [µg/mL] | IC50 Amphidinium carterae ([1]; live cells counted after 24 h) [µg/mL] | IC50 Heterosigma akashiwo ([2]; live cells counted after 24 h) [µg/mL] | Lethal Rate (at 100 μg/mL) Artemia salina [9] [%] | IC50 Prorocentrum donghaiense ([5]; live cells counted after 24 h) [µg/mL] | IC50 Heterocapsa circularisquama ([8]; live cells counted after 24 h) [µg/mL]
1 | CC=CCCC1(O)OC(C(O)C=CC)CC1O (stereo not drawn) [Compound 1, Trichoderol B] | 15 (≈ 61.9 µM) | 28 (≈ 116 µM) | 256 (≈ 1060 µM) | 256 (≈ 1060 µM) | 22 (≈ 90.8 µM) | 64 to 256 (≈ 264 to 1060 µM) | weak antifungal activity | 64 (≈ 264 µM) | 24 (≈ 99 µM) | – | – | – | – | – | –
2 | C/C=C/CCC(O)C(O)/C=C/C=C/C(O)CO (stereo not drawn) [Compound 2, (3E,5E,11E)-trideca-3,5,11-trien-1,2,7,8-tetraol] | 61 (≈ 252 µM) | 43 (≈ 177 µM) | – | > 256 | 37 (≈ 153 µM) | – | – | > 256 | > 100 | > 256 | – | – | – | – | –
3 | C=CCC(O)/C=C/C(O)C(O)CC/C=C/C (stereo not drawn) [Compound 3, (5E,11E)-trideca-1,5,11-trien-4,7,8-triol] | 66 (≈ 292 µM) | > 100 | – | > 256 | > 100 | – | – | > 256 | 78 (≈ 345 µM) | > 256 | – | – | – | – | –
4 | C/C=C/CCC(O)C(O)C/C=C/C(O)C(C)O (stereo not drawn) [Compound 4, (4E,11E)-trideca-4,11-diene-2,3,7,8-tetraol] | > 100 | 53 (≈ 217 µM) | – | > 256 | 42 (≈ 172 µM) | ≥ 64 | weak antifungal activity | 128 (≈ 524 µM) | > 100 | 256 (≈ 1050 µM) | – | – | – | – | –
5 | C/C=C/CCC(O)C(O)C/C=C/CC(C)O (stereo not drawn) [Compound 5, (4E,11E)-trideca-4,11-dien-2,7,8-triol] | 50 (≈ 219 µM) | > 100 | – | > 256 | > 100 | – | – | > 256 | 68 (≈ 298 µM) | > 256 | – | – | – | – | –
6 | C/C=C/CCC(O)C(O)C/C=C/CO (stereo not drawn) [Compound 6, (2E,9E)-undeca-2,9-dien-1,5,6-triol] | 44 (≈ 220 µM) | 82 (≈ 409 µM) | – | > 256 | > 100 | – | – | > 256 | > 100 | > 256 | – | – | – | – | –
7 | C/C=C/CC[C@@H](O)[C@@H](O)C/C=C/[C@@H](O)[C@H](C)O [Compound 7, triharzianin B] | > 100 | 49 (≈ 201 µM) | – | > 256 | 30 (≈ 123 µM) | ≥ 64 | weak antifungal activity | 128 (≈ 524 µM) | > 100 | 256 (≈ 1050 µM) | – | – | – | – | –
8 | [K+].[K+].[O]=[Cr](=[O])([O-])[O][Cr](=[O])(=[O])[O-] [Compound K2Cr2O7, K2Cr2O7, reference compound] | – | – | – | – | – | – | – | – | – | – | 1.2 | 0.8 | 100 | 1.4 | 1.0
9 | C[C@@H]1[C@H](O)[C@@H](C)/C=C/C=C/C=C/C=C/C=C/C=C/C=C/[C@H](O[C@@H]2O[C@H](C)[C@@H](O)[C@H](N)[C@@H]2O)C[C@@H]2O[C@](O)(C[C@@H](O)C[C@@H](O)[C@H](O)CC[C@@H](O)C[C@@H](O)CC(=O)O[C@H]1C)C[C@H](O)[C@H]2C(=O)O [amphotericin B, reference compound] | – | – | – | 2 (≈ 2.16 µM) | – | – | – | 1 (≈ 1.08 µM) | – | 2 (≈ 2.16 µM) | – | – | – | – | –
